A word on the IC50: it is the concentration at which inhibition is half-maximal.

The text below walks through data of patent US20250270209A1 (INTERLINE THERAPEUTICS, INC., priority 2022, published 2025).

The target of one experiment is LRRK2 wild type enzyme (Homo sapiens, UniProt Q5S007). As to the kind of experiment: Biochemical Assay: LRRK2 TR-FRET (LanthaScreen) kinase assay with LRRKtide substrate. The following applies: LRRK2 Inhibition, Table 8. The procedure, abridged: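 Human wild-type LRRK2 (3 nM) preincubated 15 min with compound (11-point, 3-fold, top 10 μM), then reacted 120 min at 23 °C with 400 nM LRRKtide and 25 μM ATP, pH 8.0. Stopped with EDTA; Tb-anti-pLRRKtide TR-FRET read after 30 min.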
LRRK2 wild type enzyme, sequence (Q5S007 whole entry): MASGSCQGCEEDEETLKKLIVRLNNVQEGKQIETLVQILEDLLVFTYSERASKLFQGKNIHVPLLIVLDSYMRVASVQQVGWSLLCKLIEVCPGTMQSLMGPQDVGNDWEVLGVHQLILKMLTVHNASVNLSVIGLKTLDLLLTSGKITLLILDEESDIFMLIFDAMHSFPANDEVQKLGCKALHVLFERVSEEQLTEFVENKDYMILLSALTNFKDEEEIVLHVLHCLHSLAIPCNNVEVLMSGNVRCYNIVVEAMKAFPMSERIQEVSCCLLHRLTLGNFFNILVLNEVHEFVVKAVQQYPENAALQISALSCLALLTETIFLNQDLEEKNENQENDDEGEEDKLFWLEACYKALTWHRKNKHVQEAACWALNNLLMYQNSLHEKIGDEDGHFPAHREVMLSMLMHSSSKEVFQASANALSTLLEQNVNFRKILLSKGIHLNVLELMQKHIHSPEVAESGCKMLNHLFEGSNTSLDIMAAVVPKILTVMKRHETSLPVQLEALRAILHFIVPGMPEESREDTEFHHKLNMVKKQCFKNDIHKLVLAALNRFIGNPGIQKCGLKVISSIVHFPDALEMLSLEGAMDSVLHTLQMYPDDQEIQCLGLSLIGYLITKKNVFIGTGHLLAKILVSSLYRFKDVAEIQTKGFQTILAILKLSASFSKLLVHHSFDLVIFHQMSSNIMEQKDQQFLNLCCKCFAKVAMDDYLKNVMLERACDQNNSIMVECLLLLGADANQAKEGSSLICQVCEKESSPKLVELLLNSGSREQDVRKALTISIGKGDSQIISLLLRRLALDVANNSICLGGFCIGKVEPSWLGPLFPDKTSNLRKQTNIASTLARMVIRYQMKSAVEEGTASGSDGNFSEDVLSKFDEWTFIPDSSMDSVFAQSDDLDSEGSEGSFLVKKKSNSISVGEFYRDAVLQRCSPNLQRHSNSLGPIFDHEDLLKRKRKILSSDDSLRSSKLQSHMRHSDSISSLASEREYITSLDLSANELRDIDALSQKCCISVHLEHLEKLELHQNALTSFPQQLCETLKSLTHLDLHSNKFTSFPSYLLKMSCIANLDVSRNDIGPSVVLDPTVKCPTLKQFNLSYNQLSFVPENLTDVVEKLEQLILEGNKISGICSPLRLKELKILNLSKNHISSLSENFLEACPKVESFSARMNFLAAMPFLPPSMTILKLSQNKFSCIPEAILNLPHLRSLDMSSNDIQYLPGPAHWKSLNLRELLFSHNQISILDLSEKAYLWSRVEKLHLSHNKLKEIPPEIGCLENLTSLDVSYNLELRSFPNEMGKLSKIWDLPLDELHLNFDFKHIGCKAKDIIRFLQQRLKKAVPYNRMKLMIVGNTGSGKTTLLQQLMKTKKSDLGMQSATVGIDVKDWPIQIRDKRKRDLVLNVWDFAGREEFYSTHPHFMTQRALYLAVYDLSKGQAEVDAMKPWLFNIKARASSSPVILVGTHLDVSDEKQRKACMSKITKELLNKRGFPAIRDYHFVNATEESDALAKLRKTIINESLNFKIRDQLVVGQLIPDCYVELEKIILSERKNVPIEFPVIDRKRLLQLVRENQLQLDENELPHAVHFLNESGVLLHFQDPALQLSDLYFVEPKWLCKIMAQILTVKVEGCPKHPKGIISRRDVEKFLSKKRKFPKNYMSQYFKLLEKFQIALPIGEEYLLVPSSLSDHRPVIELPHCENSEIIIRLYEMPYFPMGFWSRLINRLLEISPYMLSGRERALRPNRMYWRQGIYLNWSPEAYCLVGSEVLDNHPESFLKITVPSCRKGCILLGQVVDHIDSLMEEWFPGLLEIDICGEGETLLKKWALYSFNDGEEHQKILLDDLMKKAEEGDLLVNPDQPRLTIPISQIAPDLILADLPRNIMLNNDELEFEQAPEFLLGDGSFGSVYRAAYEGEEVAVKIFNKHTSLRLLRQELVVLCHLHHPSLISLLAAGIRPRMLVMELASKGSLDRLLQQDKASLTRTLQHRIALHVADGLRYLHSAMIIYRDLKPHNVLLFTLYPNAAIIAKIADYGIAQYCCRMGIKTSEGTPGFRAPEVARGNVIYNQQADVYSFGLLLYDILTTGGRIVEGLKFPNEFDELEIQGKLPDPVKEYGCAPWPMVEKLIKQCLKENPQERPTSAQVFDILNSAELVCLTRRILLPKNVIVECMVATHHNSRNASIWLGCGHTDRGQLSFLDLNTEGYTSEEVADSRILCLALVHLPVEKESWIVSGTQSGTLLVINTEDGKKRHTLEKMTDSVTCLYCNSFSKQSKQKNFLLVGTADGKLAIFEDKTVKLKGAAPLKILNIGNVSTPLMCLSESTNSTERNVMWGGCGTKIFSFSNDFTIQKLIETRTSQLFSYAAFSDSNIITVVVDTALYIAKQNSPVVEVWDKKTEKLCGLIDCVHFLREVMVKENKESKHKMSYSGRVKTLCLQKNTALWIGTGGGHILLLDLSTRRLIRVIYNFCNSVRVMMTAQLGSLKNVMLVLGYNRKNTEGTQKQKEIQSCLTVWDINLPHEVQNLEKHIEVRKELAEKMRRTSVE
A general note: TR-FRET usually uses a lanthanide donor and a delayed reading to cut background.

In experiment [1] the target is T1, wild type LRRK2 overexpressed in recombinant HEK-293T cells (Homo sapiens, UniProt Q5S007).
T1 construct: host or cells: HEK293T (transient transfection with pCMV-LRRK2 WT plasmid)
T1 sequence (Q5S007 whole entry): as above
The experiment can be described thus: pS935 LRRK2 Cell Assay (HTRF, phospho-LRRK2 Ser935). The experiment is classed as cell-based. The following applies: LRRK2 Inhibition, Table 8, 2 hours compound incubation. The procedure, abridged:
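HEK-293T cells transiently transfected with wild-type LRRK2 for 24 h, plated overnight, then treated 2 h at 37° C with compound (top 10 μM, 3-fold, 9 doses, duplicates, 0.2% DMSO). Lysates probed overnight at 23° C by sandwich HTRF for pSer935; 665/615 nm ratio read.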

Each structure is given as a SMILES string.

`C[C@@H]1C[C@H](n2c(CC3CN(C(=O)c4ccccn4)C3)nc3cnc4ccc(C#N)cc4c32)CCO1` [Compound 56, 1-[(2R,4R)-2-methyloxan-4-yl]-2-{[1-(pyridine-2-carbonyl)azetidin-3-yl]methyl}-1H-imidazo[4,5-c]quinoline-8-carbonitrile]: the IC50 on LRRK2 wild type enzyme came out at 2.39 nM; in experiment [1], 158 nM.

For the compound `C[C@@H]1C[C@H](n2c(CC(=O)NCCc3ccccn3)nc3cnc4ccc(C#N)cc4c32)CCO1` [Compound 366, N-[2-(2-pyridyl)ethyl]{3-[(2R,4R)-2-methyltetrahydro-2H-pyran-4-yl]-12-cyano-3,5,8-triazatricyclo[7.4.0.0^2,6]trideca-1,4,6,8,10,12-hexaen-4-yl}acetamide], the IC50 was found to be 0.587 nM against LRRK2 wild type enzyme and 28.4 nM in experiment [1].

On to `C[C@@H]1C[C@H](n2c(CC(=O)Nc3ccc(F)nc3)nc3cnc4ccc(C#N)cc4c32)CCO1` [Compound 299, N-(6-fluoro-3-pyridyl){3-[(2R,4R)-2-methyltetrahydro-2H-pyran-4-yl]-12-cyano-3,5,8-triazatricyclo[7.4.0.0^2,6]trideca-1,4,6,8,10,12-hexaen-4-yl}acetamide], for which the IC50 was 0.387 nM at LRRK2 wild type enzyme and 10.5 nM in experiment [1].

In the case of `C[C@@H]1C[C@H](n2c(CC(=O)Nc3cnn(C)c3CO)nc3cnc4ccc(C#N)cc4c32)CCO1` [Compound 158, 2-{8-cyano-1-[(2R,4R)-2-methyloxan-4-yl]-1H-imidazo[4,5-c]quinolin-2-yl}-N-[5-(hydroxymethyl)-1-methyl-1H-pyrazol-4-yl]acetamide], the half-maximal inhibitory concentration (IC50) against LRRK2 wild type enzyme turned out to be 0.454 nM; in experiment [1] it was 272 nM.

As for `CCOc1ncccc1NC(=O)Cc1nc2cnc3ccc(C#N)cc3c2n1[C@@H]1CCO[C@H](C)C1` [Compound 275, N-(2-ethoxy-3-pyridyl){3-[(2R,4R)-2-methyltetrahydro-2H-pyran-4-yl]-12-cyano-3,5,8-triazatricyclo[7.4.0.0^2,6]trideca-1,4,6,8,10,12-hexaen-4-yl}acetamide], the results for the IC50 (on LRRK2 wild type enzyme; in experiment [1]) were 0.478 nM and 2.41 nM, respectively.

With `C[C@@H]1C[C@H](n2c(CC(=O)NCc3ncccn3)nc3cnc4ccc(Cl)cc4c32)CCO1` [Compound 142, 2-{8-chloro-1-[(2R,4R)-2-methyloxan-4-yl]-1H-imidazo[4,5-c]quinolin-2-yl}-N-[(pyrimidin-2-yl)methyl]acetamide], the IC50 at LRRK2 wild type enzyme turned out to be 0.565 nM; in experiment [1], 17.8 nM.

On to `C[C@@H]1C[C@H](n2c(CC(=O)N[C@H]3C[C@@H](OCc4ccccn4)C3)nc3cnc4ccc(C#N)cc4c32)CCO1` [Compound 162, 2-{8-cyano-1-[(2R,4R)-2-methyloxan-4-yl]-1H-imidazo[4,5-c]quinolin-2-yl}-N-[(1rs,3rs)-3-[(pyridin-2-yl)methoxy]cyclobutyl]acetamide], for which the IC50 at LRRK2 wild type enzyme amounted to 0.485 nM; in experiment [1] it was 55.2 nM.

With `C[C@@H]1C[C@H](n2c(CC(=O)N[C@@H]3C[C@@H]3F)nc3cnc4ccc(C#N)cc4c32)CCO1` [Compound 290, N-[(1R,2S)-2-fluorocyclopropyl]{3-[(2R,4R)-2-methyltetrahydro-2H-pyran-4-yl]-12-cyano-3,5,8-triazatricyclo[7.4.0.0^2,6]trideca-1,4,6,8,10,12-hexaen-4-yl}acetamide], the IC50 on LRRK2 wild type enzyme amounted to 0.567 nM; in experiment [1], 33.4 nM.

Turning to `C[C@@H]1C[C@H](n2c(CC(=O)NC3CC3F)nc3cnc4ccc(C#N)cc4c32)CCO1` (stereo in doubt) [Compound 245, N-[(1R,2R)-2-fluorocyclopropyl]{3-[(2R,4R)-2-methyltetrahydro-2H-pyran-4-yl]-12-cyano-3,5,8-triazatricyclo[7.4.0.0^2,6]trideca-1(13),2(6),4,7,9,11-hexaen-4-yl}acetamide], the IC50 at LRRK2 wild type enzyme amounted to 0.947 nM; in experiment [1], 71 nM.

For `C[C@@H]1C[C@H](n2c(CC(=O)NC3CCCC3)nc3cnc4ccc(C#N)cc4c32)CCO1` [Compound 336, N-cyclopentyl{3-[(2R,4R)-2-methyltetrahydro-2H-pyran-4-yl]-12-cyano-3,5,8-triazatricyclo[7.4.0.0^2,6]trideca-1(9),2(6),4,7,10,12-hexaen-4-yl}acetamide], the figures for the IC50 (against LRRK2 wild type enzyme; in experiment [1]) were 0.732 nM and 10.2 nM, respectively.

Consider `COc1nc(C2CC2)ncc1NC(=O)Cc1nc2cnc3ccc(C#N)cc3c2n1[C@@H]1CCO[C@H](C)C1` [Compound 255, N-(2-cyclopropyl-4-methoxy-5-pyrimidinyl){3-[(2R,4R)-2-methyltetrahydro-2H-pyran-4-yl]-12-cyano-3,5,8-triazatricyclo[7.4.0.0^2,6]trideca-1,4,6,8,10,12-hexaen-4-yl}acetamide], for which the IC50 against LRRK2 wild type enzyme stood at 0.433 nM; in experiment [1], 3.92 nM.

`COc1nccc(F)c1NC(=O)Cc1nc2cnc3ccc(C#N)cc3c2n1[C@@H]1CCO[C@H](C)C1` [Compound 202, N-(4-fluoro-2-methoxy-3-pyridyl){3-[(2R,4R)-2-methyltetrahydro-2H-pyran-4-yl]-12-cyano-3,5,8-triazatricyclo[7.4.0.0^2,6]trideca-1,4,6,8,10,12-hexaen-4-yl}acetamide]: the IC50 at LRRK2 wild type enzyme is 0.364 nM; in experiment [1] it was 8.58 nM.

As to `C[C@@H]1C[C@H](n2c([C@H]3CCN(S(=O)(=O)C4CC4)C3)nc3cnc4ccc(C#N)cc4c32)CCO1` [Compound 25, 2-[(3S)-1-(cyclopropanesulfonyl)pyrrolidin-3-yl]-1-[(2R,4R)-2-methyloxan-4-yl]-1H-imidazo[4,5-c]quinoline-8-carbonitrile], the IC50 against LRRK2 wild type enzyme was 6.13 nM; in experiment [1] it was 563 nM.

Regarding `C[C@@H]1C[C@H](n2c(CC(=O)N[C@@H](C)c3ccccn3)nc3cnc4ccc(C#N)cc4c32)CCO1` [Compound 189, 2-{8-cyano-1-[(2R,4R)-2-methyloxan-4-yl]-1H-imidazo[4,5-c]quinolin-2-yl}-N-[(1S)-1-(pyridin-2-yl)ethyl]acetamide], the IC50 at LRRK2 wild type enzyme came to 0.332 nM; in experiment [1], 1.64 nM.

As for `COCC1(NC(=O)Cc2nc3cnc4ccc(C#N)cc4c3n2[C@@H]2CCO[C@H](C)C2)CC1` [Compound 276], the results for the IC50 (against LRRK2 wild type enzyme; in experiment [1]) were 0.922 nM and 86 nM, respectively.

With `C[C@@H]1C[C@H](n2c(CN3CCCC3=O)nc3cnc4ccc(C#N)cc4c32)CCO1` [Compound 80, 1-[(2R,4R)-2-methyloxan-4-yl]-2-[(2-oxopyrrolidin-1-yl)methyl]-1H-imidazo[4,5-c]quinoline-8-carbonitrile], the figures for the IC50 (against LRRK2 wild type enzyme; in experiment [1]) were 4.28 nM and 447 nM, respectively.

Turning to `C[C@@H]1C[C@H](n2c(CC(=O)Nc3nccc(C(F)(F)F)n3)nc3cnc4ccc(C#N)cc4c32)CCO1` [Compound 361, N-[4-(trifluoromethyl)-2-pyrimidinyl]{3-[(2R,4R)-2-methyltetrahydro-2H-pyran-4-yl]-12-cyano-3,5,8-triazatricyclo[7.4.0.0^2,6]trideca-1(9),2(6),4,7,10,12-hexaen-4-yl}acetamide], the IC50 against LRRK2 wild type enzyme came to 0.454 nM; in experiment [1], 4.23 nM.

Turning to `C[C@@H]1C[C@H](n2c(CC(=O)NC3(CO)CC3)nc3cnc4ccc(C#N)cc4c32)CCO1` [Compound 286, N-1-(hydroxymethyl)cyclopropyl{3-[(2R,4R)-2-methyltetrahydro-2H-pyran-4-yl]-12-cyano-3,5,8-triazatricyclo[7.4.0.0^2,6]trideca-1,4,6,8,10,12-hexaen-4-yl}acetamide], the values for the IC50 (against LRRK2 wild type enzyme; in experiment [1]) were 1.45 nM and 907 nM, respectively.
